According to article PMC3648463, “Common Interactions between S100A4 and S100A9 Defined by a Novel Chemical Probe” (PLoS ONE, 2013):

Assays:
S100A9 = target: T1, S100A9 (Homo sapiens, UniProt P06702); experiment: SPR direct binding to amine-coupled S100A9; SPR inhibition of S100A9 binding to immobilized RAGE (IC50 […]) and TLR4 ([…])
T1 construct: recombinant human S100A9 (produced in E. coli)
T1 sequence (P06702 1-114): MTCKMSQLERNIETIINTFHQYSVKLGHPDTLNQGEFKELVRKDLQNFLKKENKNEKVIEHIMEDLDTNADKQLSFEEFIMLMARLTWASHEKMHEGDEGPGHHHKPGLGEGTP

S100A4 = target: T2, S100A4 (Homo sapiens, UniProt P26447); experiment: SPR direct binding to amine-coupled S100A4; SPR inhibition of S100A4 binding to immobilized RAGE (IC50 […], Figure 5C)
T2 construct: human S100A4 (R&D Systems)
T2 sequence (P26447 2-101): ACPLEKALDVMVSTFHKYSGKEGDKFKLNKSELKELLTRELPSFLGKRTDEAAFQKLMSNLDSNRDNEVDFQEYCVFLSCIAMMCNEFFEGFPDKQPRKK

Question: `O=C(Nc1cc(Cl)cc(Cl)c1O)c1c(O)c(Cl)cc(Cl)c1Cl` [OX, Oxyclozanide] was tested. Which IC50 (S100A9) did it give?
Answer: ~1.3 µM

Question: What about the IC50 (S100A4) of the same molecule?
Answer: 52 µM
